Experiment [1] deals with SH-SY5Y cells. Nature of the experiment: Acidic vesicle formation in SH-SY5Y cells (LysoTracker Deep Red). Format: cell-based, human. The conditions noted are these: 24 hours, relative to DMSO-treated control. Here is the method: This is evidence for significant stimulation of autophagy by this compound under these conditions. SH-SY5Y cells are a human-derived neuroblastoma cell line widely used in in vitro models of neurological disorders (Ross R A, Spengler B A, Biedler J L. Coordinate morphological and biochemical interconversion of human neuroblastoma cells. J Natl Cancer Inst. 1983 October; 71 (4): 741-7. PMID: 6137586).
A brief description of the procedure employed is outlined here: • Day 1: Cells were seeded at 15K cells/well in the middle 60 wells of 6×96 well Cellvis imaging plates • Day 2: Media was replaced with 90 μl of DMEM/F12 (+10% FBS/1% P/S) containing NucBlue Live and the cells were treated with 10 μl of compound (10× concentrated) in triplicate for 24 hours. • Day3: Treatment was removed and cells were incubated for 30 minutes with LysoTracker™ Deep Red dye. Cells were washed twice with media and immediately imaged on EVOS M7000 at ×20 (6 images per well, 30 minutes imaging time/plate). Images were analysed using Celleste Image analysis software.

For experiment [2], the system named is Human osteosarcoma U2OS cells. Nature of the experiment: Assay to measure lysosome and autolysosome (acidic vesicle) formation in U2OS cells. Format: cell-based. The conditions noted are these: for activation at 0.8 µM: Homo sapiens, concentration of 0.8 μM, read-out: Activity (percentage increase in acidic vesicle formation over the DMSO-treated control). As for the experimental part: Lysosomes play a fundamental role in the autophagic pathway by fusing with autophagosomes and creating ‘autolysosomes’ in order to digest their contents. Stimulation of lysosome and autolysosome formation by a compound is indicative of a stimulation of autophagy. The ability of compounds to stimulate lysosome and autolysosome formation, and thus autophagy, in live cells was assessed via fluorescent microscopy using various fluorescent stains for labelling and tracking acidic organelles (including lysosomes and autolysosomes) such as: LysoView™ 650 (70059 and 70059-T, Biotium), Lyso View™633 (70058 and 70058-T, Biotium) and LysoTracker™ Deep Red (L12492, ThermoFisher Scientific). The cellular phenotype was quantitatively assessed for the induction of acidic vesicle formation and compared to a non-treated control, thus providing a measure of the ability of the compound under investigation to stimulate autophagy.
Representative procedure using LysoView™ 633 dye or LysoTracker™ Deep Red dye: Human osteosarcoma U2OS cells (40,000 cells/well) were seeded in a 24 well glass bottom plate (Sensoplate, Greiner Bio-One) and were incubated overnight in a humidified atmosphere at 37° C. and 5% CO2. Cells were grown in DMEM (Gibco) supplemented with 10% Fetal Bovine Serum (FBS) and 100 units/ml penicillin and 100 μg/ml streptomycin (Invitrogen). After the attachment period, cells were treated with different compounds of interest (at various concentrations in DMSO) or DMSO (non-treated control) in cell culture medium and were incubated for 24 hours. Compound-containing medium was removed and cells were incubated with pre-warmed cell culture medium containing 1× Lyso View™ 633 (70058 and 70058-T, Biotium) or 50 nM LysoTracker™ Deep Red (L12492, ThermoFisher Scientific) for 45 minutes at 37° C. Finally, cell nuclei were stained for 10 minutes using Hoechst 33342 (1 μg/mL) and then the medium was replaced with fresh medium. The 24 well plate was then fitted into a heated stage on the microscope and cells maintained at 37° C. Images were captured using appropriate filter set for Cy5 and DAPI detection with the EVOS M7000 Microscope (ThermoFisher Scientific). The cellular phenotype was visually assessed for the induction of acidic vesicle formation relative to the non-treated control; multiple images were acquired and analysed using ImageJ or Cell Profiler.

Experiment [3] deals with primary culture of dopaminergic Tyrosine hydroxylase (TH)-positive neurons. As to the kind of experiment: Cellular model of Parkinson's disease (MPTP/MPP+ injury). Format: cell-based, rat. The source says:
This model (run by Neuro-Sys SAS, France) is based on a primary culture of dopaminergic Tyrosine hydroxylase (TH)-positive neurons injured with the dopaminergic neurons-specific toxin (DA-toxin) 1-methyl-4-phenyl-1,2,3,6 tetrahydropyridine (MPTP, a prodrug of MPP^+) (Dauer and Przedborski, 2003). Any substances reducing DA-toxin neurotoxicity may be useful as a new therapeutic agent for the treatment or prevention of PD.
Primary culture of mesencephalic neurons: Rat dopaminergic neurons were cultured as described by Visanji et al., 2008 and Callizot et al., 2019. Briefly, pregnant female rat (Wistar) of 15 days of gestation were killed using a deep anesthesia with CO2 chamber and a cervical dislocation. The midbrains obtained from 15-day-old rat embryos (Janvier, France) were dissected under a microscope. The embryonic midbrains will be removed and placed in ice-cold medium of Leibovitz (L15) containing 2% of Penicillin-Streptomycin (PS) and 1% of bovine serum albumin (BSA). The ventral portion of the mesencephalic flexure, a region of the developing brain rich in dopaminergic neurons, was used for the cell preparations.
The midbrains were dissociated by trypsinisation for 20 min at 37° C. (solution at a final concentration of 0.05% trypsin and 0.02% EDTA). The reaction was stopped by the addition of Dulbecco's modified Eagle's medium (DMEM) containing DNAase I grade II (0.5 mg/mL) and 10% of foetal calf serum (FCS). Cells were then mechanically dissociated by 3 passages through a 10 ml pipette. Cells were then centrifuged at 180×g for 10 min at +4° C. on a layer of BSA (3.5%) in L15 medium. The supernatant was discarded, and the cell pellets re-suspended in a defined culture medium consisting of Neurobasal supplemented with B27 (2%), L-glutamine (2 mM) and 2% of PS solution and 10 ng/mL of Brain-derived neurotrophic factor (BDNF) and 1 ng/ml of Glial-Derived Neurotrophic Factor (GDNF). Viable cells were counted in a Neubauer cytometer using the trypan blue exclusion test. The cells were seeded at a density of 40,000 cells/well in 96 well-plates (pre-coated with poly-L-lysine) and maintained in a humidified incubator at 37° C. in 5% CO2/95% air atmosphere. Half of the medium was changed every 2 days with fresh medium. The wells of first and last lines and columns […] (to avoid any edge effect) and were be filled with sterile water.
• i) Pre-incubation. On day 6 of culture, the test compounds were dissolved in PBS or DMSO and incubated for 1 hour before the MPTP exposure. • ii) Injury. One hour after the application of test compound, MPTP was added to a final concentration of 4 μM, diluted in control medium still in presence of compounds/inhibitors for 48 h. Test compounds were tested on one culture in 96-well plate (n=6 culture wells per condition).
Immunostaining: TH and α-Synuclein. 48 Hours after intoxication, the cell culture supernatant was removed, and the cells were fixed by a solution of 4% paraformaldehyde in PBS, pH=7.3 for 20 min at room temperature. The cells were washed twice in PBS, and then permeabilized. Non-specific sites were blocked with a solution of PBS containing 0.1% of saponin and 1% FCS for 15 min at room temperature. The cultures were incubated with: (a) monoclonal anti-Tyrosine Hydroxylase (TH) antibody produced in mouse at dilution of 1/10000 in PBS containing 1% FCS, 0.1% saponin, for 2 hours at room temperature, and (b) polyclonal anti-alpha synuclein (α-synuclein) antibody produced in rabbit at dilution of 1/200 in PBS containing 1% FCS, 0.1% saponin, for 2 h at room temperature.
Automatic computer analysis. For each condition, 20 pictures (representing the whole well area) were automatically taken using ImageXpress® (Molecular Devices) at 10× magnification (20 pictures, for TH and α-synuclein into TH neurons) using the same acquisition parameters. From images, analyses was directly and automatically performed by MetaXpress® (Molecular Devices). […]

In the case of `CC(C)(C)N1CCC(NC(=O)c2csc(-c3cnn(-c4ccccc4)c3)n2)CC1` [Compound 248, N-(1-tert-butylpiperidin-4-yl)-2-(1-phenyl-1H-pyrazol-4-yl)-1,3-thiazole-4-carboxamide], in experiment [1], the “Fold change in acidic vesicle formation at compound concentration of 0.8 μM” value (shortened to “Fold change … of 0.8 μM”) stood at 2.2 fold and the “Fold change in acidic vesicle formation at compound concentration of 10 μM” value (“Fold change … of 10 μM” for short) is recorded as 1.9 fold.

For `C[C@H]1CN(C(=O)c2cc(-c3cnn(-c4ccccc4)c3)c[nH]2)CCN1` [Compound 3, (3S)-3-methyl-1-[4-(1-phenyl-1H-pyrazol-4-yl)-1H-pyrrole-2-carbonyl]piperazine], in experiment [1], the “Fold change … of 0.8 μM” value turned out to be 1.6 fold and the “Fold change … of 10 μM” value came to 3.5 fold.

With `CCN1CCC(N(C)C(=O)c2cc(-c3cnn(-c4ccccc4)c3)c[nH]2)CC1` [Compound 256, N-(1-ethylpiperidin-4-yl)-N-methyl-4-(1-phenyl-1H-pyrazol-4-yl)-1H-pyrrole-2-carboxamide], in experiment [2], the activation at 0.8 µM is 30 to 50%. Besides, in experiment [1], the “Fold change … of 0.8 μM” value worked out at 1.8 fold and the “Fold change … of 10 μM” value is reported as 2.7 fold.

Regarding `C[C@H]1CN(C(=O)c2csc(-c3cnn(-c4ccccc4)n3)n2)CCN1` [Compound 238, (3S)-3-methyl-1-[2-(2-phenyl-2H-1,2,3-triazol-4-yl)-1,3-thiazole-4-carbonyl]piperazine], in experiment [1], the “Fold change … of 0.8 μM” value turned out to be 2.1 fold and the “Fold change … of 10 μM” value is reported as 2.9 fold.

Consider `CCN1CCC(NC(=O)c2cc(-c3nnc(-c4ccccc4)s3)cs2)CC1` [Compound 259, N-(1-ethylpiperidin-4-yl)-4-(5-phenyl-1,3,4-thiadiazol-2-yl)thiophene-2-carboxamide], for which the activation at 0.8 µM in experiment [2] was in the range of 10 to 30%. In addition, the “acidic vesicle formation relative to a DMSO-treated control” value in experiment [2] (concentration of 10 μM, 24 hours) is reported as “only a slight increase”. Moreover, in experiment [1], the “Fold change … of 0.8 μM” value was determined as 2.3 fold and the “Fold change … of 10 μM” value was determined as 3.6 fold.

Take `O=C(O)C1CCCN1C(=O)c1csc(-c2cnn(-c3ccccc3)c2)n1` (centres unmarked) [Compound 144, 1-[2-(1-phenyl-1H-pyrazol-4-yl)-1,3-thiazole-4-carbonyl]pyrrolidine-2-carboxylic acid]: the “effects in the in vitro model of PD based on MPP+ injury” value in experiment [3] is reported as “positive effects”. Also, the “increase in the number of dopaminergic TH positive neurons” value in experiment [3] (100 nM, compared to MPTP injury alone) is 25%. In experiment [3] (1 μM, 500 nM and 100 nM, compared to MPP+ injury alone), the “decrease in α-syn area per dopaminergic TH positive neuron” value is greater than 15%.

On to `CCN1CCC(N(C(=O)c2csc(-c3cnn(-c4ccccc4)c3)n2)C(C)C)CC1` [Compound 218, N-(1-ethylpiperidin-4-yl)-2-(1-phenyl-1H-pyrazol-4-yl)-N-(propan-2-yl)-1,3-thiazole-4-carboxamide], for which the activation at 0.8 µM in experiment [2] was 30 to 50%. In experiment [1], the “Fold change … of 0.8 μM” value is 1.6 fold and the “Fold change … of 10 μM” value was found to be 4.8 fold.

For `C[C@H]1CN(C(=O)c2cc(-c3cnn(-c4ccccc4)c3)c[nH]2)CCN1` [Compound 255, (3S)-3-methyl-1-[4-(1-phenyl-1H-pyrazol-4-yl)-1H-pyrrole-2-carbonyl]piperazine], the activation at 0.8 µM in experiment [2] was in the range of 50 to 100%.

In the case of `CC1(C)CN(C(=O)c2csc(-c3cnn(-c4ccccc4)c3)n2)CCN1` [Compound 235, 3,3-dimethyl-1-[2-(1-phenyl-1H-pyrazol-4-yl)-1,3-thiazole-4-carbonyl]piperazine], in experiment [2], the activation at 0.8 µM was 30 to 50%.

`CCN1CCC(N(C)C(=O)c2csc(-c3cnn(-c4ccccc4C(F)(F)F)c3)n2)CC1` [Compound 217, N-(1-ethylpiperidin-4-yl)-N-methyl-2-{1-[2-(trifluoromethyl)phenyl]-1H-pyrazol-4-yl}-1,3-thiazole-4-carboxamide]: the activation at 0.8 µM in experiment [2] lay in the range of 10 to 30%.

Regarding `CCN1CCC(NC(=O)c2ccc(-c3cnn(-c4ccccc4)c3)[nH]2)CC1` [Compound 214, N-(1-ethylpiperidin-4-yl)-5-(1-phenyl-1H-pyrazol-4-yl)-1H-pyrrole-2-carboxamide], the activation at 0.8 µM in experiment [2] was 10 to 30%.

For the molecule `CCN1CCC(NC(=O)c2cc(-c3cnn(-c4ccccc4)c3)c[nH]2)CC1` [Compound 257, N-(1-ethylpiperidin-4-yl)-4-(1-phenyl-1H-pyrazol-4-yl)-1H-pyrrole-2-carboxamide], the activation at 0.8 µM in experiment [2] is 50 to 100%. For the same molecule, in experiment [1], the “Fold change … of 0.8 μM” value came to 1.9 fold and the “Fold change … of 10 μM” value is 2.6 fold.

The record behind these values is US20250034127A1, “AUTOPHAGY INDUCING COMPOUNDS AND USES THEREOF, IN PARTICULAR FOR DISEASES OF THE CNS” (Samsara Therapeutics Inc., priority 2021, published 2025).
